Tests used:
Assay type in all cases: cell-based
A549 NSCLC cells = assay: CCK-8 cell proliferation / cytotoxicity, A549; details: Homo sapiens, A549 (EGFR+++), 72 h
Procedure: (§1) H520, H1299, and A549 cells were plated at a density of 3×10^3 cells/well in 96-well multiplates. […] Then after, 10 ul of CCK-8 solution was added to each well and further developed for 2 h. The absorbance values were detected at a wavelength of 450 nm using a Bio-Rad microplate reader. The cell viability was calculated by the optical density (OD) values of treated groups/OD values of control groups (Vehicle/PBS)×100%.

H1299 NSCLC cells = assay: CCK-8 cell proliferation / cytotoxicity, H1299; details: Homo sapiens, NCI-H1299, H1299 (EGFR+++), 72 h
Procedure: as §1

H520 NSCLC cells = assay: CCK-8 cell proliferation / cytotoxicity, H520; details: Homo sapiens, NCI-H520, H520 (EGFR+/-), 72 h
Procedure: as §1

## CC(C)[C@]12O[C@H]1[C@@H]1O[C@]13[C@]1(O[C@H]1C[C@H]1C4=C(CC[C@@]13C)C(=O)OC4)[C@@H]2O [TRP, Triptolide]
A549 NSCLC cells
  IC50: 25 to 50 nM
H1299 NSCLC cells
  IC50: 6.25 to 12.5 nM
H520 NSCLC cells
  IC50: 3.13 nM

— patent US20210023238A1, “TRIPTOLIDE ANTIBODY CONJUGATES” (City of Hope, priority 2019, published 2021)
